Experimental data reported in patent US10428081B2, “EGFR inhibitor, preparation method and use thereof” (Shanghai Hansoh Biomedical Co., Ltd., priority 2014, dated 2019).
Where two headings read alike, the source gives them in different places.

Tests used:
[1] = target: exon 20 T790M mutant-type EGFR enzyme (Homo sapiens, UniProt P00533, T790M); assay: Enzymologic experiment of T790M mutant-type EGFR (TR-FRET); assay type: biochemical; settings: for IC50: T790M EGFR enzyme, TR-FRET, ATP 1 to 10 uM; for Selectivity of wild-type/mutant-type: ratio WT IC50 / T790M IC50, enzyme
How it was run: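 Compound dilutions preincubated 10 min at room temperature; reaction ended with EDTA, then labeled antibody added for 1 h at room temperature. Inhibition rates derived from TR-FRET fluorescence signal, and IC50 obtained by curve fitting across concentrations.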

A431 cells = assay: Inhibition of A431 cell proliferation (CellTiter-Glo); assay type: cell-based; settings: read-out: EGFR IC50 (nM) A431
How it was run: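 Viability read as CellTiter-Glo luminescence; IC50 by curve fitting of inhibition rates.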

wild-type EGFR enzyme = wild-type EGFR enzyme (Homo sapiens, UniProt P00533); assay: Enzymologic experiment of wild-type (WT) EGFR (TR-FRET); assay type: biochemical; settings: ATP 0.1 to 5 uM
How it was run: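 Wild-type EGFR (0.1 to 1 nM final) preincubated with serially diluted compound for 10 minutes at room temperature; reaction stopped with EDTA, then labelled antibody added for 1 hour at room temperature. TR-FRET signal converted to inhibition rates; IC50 from curve fitting across concentrations.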

NCI-H1975 cells = assay: Inhibition of NCI-H1975 cell proliferation (CellTiter-Glo); assay type: cell-based; settings: for IC50: NCI-H1975 cell proliferation, 72 hours, CellTiter-Glo, read-out: EGFR IC50 (nM) H1975; for Selectivity of wild-type/mutant-type: ratio A431 IC50 / H1975 IC50, cells

Sequence of wild-type EGFR enzyme (P00533 25-1210): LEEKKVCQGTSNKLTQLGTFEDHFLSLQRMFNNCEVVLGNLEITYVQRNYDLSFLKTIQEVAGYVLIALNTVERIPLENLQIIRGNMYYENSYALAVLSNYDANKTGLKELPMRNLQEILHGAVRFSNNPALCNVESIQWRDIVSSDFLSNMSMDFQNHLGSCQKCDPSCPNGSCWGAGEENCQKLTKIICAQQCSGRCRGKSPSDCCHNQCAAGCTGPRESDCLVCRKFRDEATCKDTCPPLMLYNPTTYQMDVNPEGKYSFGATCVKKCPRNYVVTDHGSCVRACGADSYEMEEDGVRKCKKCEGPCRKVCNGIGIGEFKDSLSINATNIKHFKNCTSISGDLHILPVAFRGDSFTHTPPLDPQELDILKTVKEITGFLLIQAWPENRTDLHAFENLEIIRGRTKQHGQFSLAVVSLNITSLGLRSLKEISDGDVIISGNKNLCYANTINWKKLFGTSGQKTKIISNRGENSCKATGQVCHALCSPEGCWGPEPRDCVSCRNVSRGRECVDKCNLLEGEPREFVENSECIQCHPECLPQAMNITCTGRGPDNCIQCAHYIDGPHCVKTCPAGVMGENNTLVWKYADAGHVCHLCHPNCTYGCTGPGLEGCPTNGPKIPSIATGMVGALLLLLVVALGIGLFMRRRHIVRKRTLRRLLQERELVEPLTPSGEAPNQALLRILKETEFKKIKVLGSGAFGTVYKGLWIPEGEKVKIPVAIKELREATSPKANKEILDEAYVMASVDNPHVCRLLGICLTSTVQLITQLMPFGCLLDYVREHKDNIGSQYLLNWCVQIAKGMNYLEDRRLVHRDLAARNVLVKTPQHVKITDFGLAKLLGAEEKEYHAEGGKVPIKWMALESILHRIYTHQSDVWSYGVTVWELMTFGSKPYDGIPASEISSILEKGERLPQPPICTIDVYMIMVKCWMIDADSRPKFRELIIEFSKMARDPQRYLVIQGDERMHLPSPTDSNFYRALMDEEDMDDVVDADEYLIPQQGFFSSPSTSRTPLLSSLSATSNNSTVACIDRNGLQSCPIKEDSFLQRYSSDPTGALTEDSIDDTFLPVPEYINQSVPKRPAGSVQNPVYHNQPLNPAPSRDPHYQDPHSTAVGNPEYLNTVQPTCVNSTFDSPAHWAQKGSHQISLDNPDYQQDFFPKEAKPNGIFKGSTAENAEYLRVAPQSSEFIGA
Sequence of exon 20 T790M mutant-type EGFR enzyme (P00533 25-1210 T790M): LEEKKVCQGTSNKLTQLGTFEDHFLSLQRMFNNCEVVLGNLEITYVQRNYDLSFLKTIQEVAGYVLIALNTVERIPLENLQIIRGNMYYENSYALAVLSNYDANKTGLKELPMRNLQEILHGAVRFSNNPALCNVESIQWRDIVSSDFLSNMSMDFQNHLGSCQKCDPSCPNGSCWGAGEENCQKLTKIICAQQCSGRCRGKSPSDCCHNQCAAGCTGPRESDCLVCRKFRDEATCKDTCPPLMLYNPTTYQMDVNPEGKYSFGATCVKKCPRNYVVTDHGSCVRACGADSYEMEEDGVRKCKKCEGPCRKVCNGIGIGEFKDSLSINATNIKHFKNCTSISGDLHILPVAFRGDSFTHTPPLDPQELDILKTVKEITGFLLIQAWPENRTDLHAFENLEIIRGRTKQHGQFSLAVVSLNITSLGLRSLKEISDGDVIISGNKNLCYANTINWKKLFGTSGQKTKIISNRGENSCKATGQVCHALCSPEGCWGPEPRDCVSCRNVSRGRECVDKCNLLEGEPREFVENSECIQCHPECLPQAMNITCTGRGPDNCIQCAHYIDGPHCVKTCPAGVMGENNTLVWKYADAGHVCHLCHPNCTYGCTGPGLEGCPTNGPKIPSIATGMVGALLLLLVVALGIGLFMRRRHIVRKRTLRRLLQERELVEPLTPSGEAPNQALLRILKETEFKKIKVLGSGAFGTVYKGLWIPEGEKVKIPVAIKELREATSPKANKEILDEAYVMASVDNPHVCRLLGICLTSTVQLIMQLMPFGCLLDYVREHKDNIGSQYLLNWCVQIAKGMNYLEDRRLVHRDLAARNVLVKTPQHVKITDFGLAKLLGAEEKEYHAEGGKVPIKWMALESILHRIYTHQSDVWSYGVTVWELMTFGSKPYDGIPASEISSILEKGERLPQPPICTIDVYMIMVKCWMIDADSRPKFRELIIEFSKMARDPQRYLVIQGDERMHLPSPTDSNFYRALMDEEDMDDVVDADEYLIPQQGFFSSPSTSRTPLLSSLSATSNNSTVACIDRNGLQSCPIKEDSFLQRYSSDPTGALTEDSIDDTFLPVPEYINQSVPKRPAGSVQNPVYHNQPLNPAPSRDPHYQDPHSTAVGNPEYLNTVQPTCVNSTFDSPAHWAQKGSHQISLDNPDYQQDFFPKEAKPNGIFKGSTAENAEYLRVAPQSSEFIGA

Compound	IC50 [1]	Selectivity of wild-type/mutant-type [1]	IC50 (A431 cells; Homo sapiens, A-431, 72 h)	IC50 (wild-type EGFR enzyme)	IC50 (NCI-H1975 cells; Homo sapiens, NCI-H1975, 72 h)	Selectivity of wild-type/mutant-type (NCI-H1975 cells)	IC50 (A431 cells; 72 hours)	IC50 (NCI-H1975 cells)
C=CC(=O)Nc1cc(Nc2nccc(-n3ncc4cc(OCC)ccc43)n2)c(OC)cc1N(C)CCN(C)C [Example 105, N-(2-((2-(dimethylamino)ethyl)(methyl)amino)-5-((4-(5-ethoxy-1H-indazol-1-yl)pyrimidin-2-yl)amino)-4-methoxyphenyl)acrylamide]	0.26 nM	2.38	887 nM	0.62 nM	3.12 nM	284.29		
C=CC(=O)Nc1cc(Nc2ncc(C(F)(F)F)c(-n3nc(C)c4cc(C#N)ccc43)n2)c(OC)cc1N(C)CCN(C)C [Example 106, N-(5-((4-(5-cyano-3-methyl-1H-indazol-1-yl)-5-(trifluoromethyl)pyrimidin-2-yl)amino)-2-((2-(dimethylamino)ethyl)(methyl)amino)-4-methoxyphenyl)acrylamide]	0.88 nM	216.14	354 nM	190 nM	14.3 nM	24.70		
C=CC(=O)Nc1cc(Nc2ncc(C(F)(F)F)c(-n3nc(C)c4cc(OC)ccc43)n2)c(OC)cc1N(C)CCN(C)C [Example 107]	0.76 nM	36.84	98.3 nM	28 nM	2.76 nM	35.61		
C=CC(=O)Nc1cc(Nc2nccc(-n3nc(C4CC4)c4ccccc43)n2)c(OC)cc1N(C)CCN(C)C [Example 111, N-(5-((4-(3-cyclopropyl-1H-indazol-1-yl)pyrimidin-2-yl)amino)-2-((2-(dimethylamino)ethyl)(methyl)amino)-4-methoxyphenyl)acrylamide]	0.42 nM	6.60		2.77 nM		55.52	314 nM	5.65 nM
C=CC(=O)Nc1cc(Nc2nccc(-n3ncc4ccc(C#N)cc43)n2)c(OC)cc1N(C)CCN(C)C [Example 112, N-(5-((4-(6-cyano-1H-indazol-1-yl)pyrimidin-2-yl)amino)-2-((2-(dimethylamino)ethyl)(methyl)amino)-4-methoxyphenyl)acrylamide]	3.45 nM	13.61	257 nM	46.9 nM	15.6 nM	16.51		
C=CC(=O)Nc1cc(Nc2nccc(-n3nc(C4CC4)c4cc(OC)ccc43)n2)c(OC)cc1N(C)CCN(C)C [Example 113, N-(5-((4-(3-cyclopropyl-5-methoxy-1H-indazol-1-yl)pyrimidin-2-yl)amino)-2-((2-(dimethylamino)ethyl)(methyl)amino)-4-methoxyphenyl)acrylamide]	0.36 nM	4.50	233 nM	1.62 nM	3.17 nM	73.42		
C=CC(=O)Nc1cc(Nc2ncc(C(F)(F)F)c(-n3nc(C4CC4)c4cc(OC)ccc43)n2)c(OC)cc1N(C)CCN(C)C [Example 114, N-(5-((4-(3-cyclopropyl-5-methoxy-1H-indazol-1-yl)-5-(trifluoromethyl)pyrimidin-2-yl)amino)-2-((2-(dimethylamino)ethyl)(methyl)amino)-4-methoxyphenyl)acrylamide]	2.28 nM	18.40	122 nM	42 nM	11.6 nM	10.47		
C=CC(=O)Nc1cc(Nc2ncc(Cl)c(-n3nc(C4CC4)c4cc(OC)ccc43)n2)c(OC)cc1N(C)CCN(C)C [Example 115, N-(5-((5-chloro-4-(3-cyclopropyl-5-methoxy-1H-indazol-1-yl)pyrimidin-2-yl)amino)-2-((2-(dimethylamino)ethyl)(methyl)amino)-4-methoxyphenyl)acrylamide]	0.37 nM	10.65	101 nM	3.94 nM	4.98 nM	20.34		
C=CC(=O)Nc1cc(Nc2ncc(C(F)(F)F)c(-n3nc(CC)c4cc(C#N)ccc43)n2)c(OC)cc1N(C)CCN(C)C [Example 117, N-(5-((4-(5-cyano-3-ethyl-1H-indazol-1-yl)-5-(trifluoromethyl)pyrimidin-2-yl)amino)-2-((2-(dimethylamino)ethyl)(methyl)amino)-4-methoxyphenyl)acrylamide]	0.61 nM	71.05	199 nM	43.3 nM	29.9 nM	6.65		
C=CC(=O)Nc1cc(Nc2ncc(Cl)c(-n3nc(CC)c4cc(C#N)ccc43)n2)c(OC)cc1N(C)CCN(C)C [Example 118, N-(5-((5-chloro-4-(5-cyano-3-ethyl-1H-indazol-1-yl)pyrimidin-2-yl)amino)-2-((2-(dimethylamino)ethyl)(methyl)amino)-4-methoxyphenyl)acrylamide]	0.71 nM	39.30	374 nM	27.9 nM	93.7 nM	3.99		
C=CC(=O)Nc1cc(Nc2nccc(-n3cnc4ccccc43)n2)c(OC)cc1N(C)CCN(C)C [Example 120, N-(5-((4-(1H-benzo[d]imidazol-1-yl)pyrimidin-2-yl)amino)-2-((2-(dimethylamino)ethyl)(methyl)amino)-4-methoxyphenyl)acrylamide]	1.05 nM	3.49	115 nM	3.66 nM	4.91 nM	23.44		
C=CC(=O)Nc1cc(Nc2nccc(-n3ncc4cc(OCCOC)ccc43)n2)c(OC)cc1N(C)CCN(C)C [Example 121, N-(2-((2-(dimethylamino)ethyl)(methyl)amino)-4-methoxy-5-((4-(5-(2-methoxyethoxy)-1H-indazol-1-yl)pyrimidin-2-yl)amino)phenyl)acrylamide]	0.4 nM	8.75	348 nM	3.5 nM	2.09 nM	166.41		
COc1cc(N(C)CCN(C)C)c(NC(=O)/C=C/CN(C)C)cc1Nc1nccc(-c2cn(C3CC3)c3ccccc23)n1 [Example 122, (E)-N-(5-((4-(1-cyclopropyl-1H-indol-3-yl)pyrimidin-2-yl)amino)-2-((2-(dimethylamino)ethyl)(methyl)amino)-4-methoxyphenyl)-4-(dimethylamino)but-2-enamide]	0.49 nM	17.14	890 nM	8.4 nM	114 nM	7.84		
C=CC(=O)Nc1cc(Nc2nccc(-c3cn(C4CC4)c4ccccc34)n2)c(OC)cc1N(C)CCN1CCCC1 [Example 123, N-(5-((4-(1-cyclopropyl-1H-indol-3-yl)pyrimidin-2-yl)amino)-4-methoxy-2-(methyl(2-(pyrrolidin-1-yl)ethyl)amino)phenyl)acrylamide]	1.28 nM	21.23	527 nM	27.2 nM	14.9 nM	35.37		
C=CC(=O)Nc1cc(Nc2nccc(-c3cn4c5c(cccc35)CCC4)n2)c(OC)cc1N(C)CCN(C)C [Example 125, N-(5-((4-(5,6-dihydro-4H-pyrrolo[3,2,1-ij]quinolin-1-yl)pyrimidin-2-yl)amino)-2-((2-(dimethylamino)ethyl)(methyl)amino)-4-methoxyphenyl)acrylamide]	1.42 nM	9.15	385 nM	13 nM	9.58 nM	40.18		
C=CC(=O)Nc1cc(Nc2nccc(-c3cn(C)c4cc(OC)ccc34)n2)c(OC)cc1N(C)CCNC [Example 127, N-(4-methoxy-5-((4-(6-methoxy-1-methyl-1H-indol-3-yl)pyrimidin-2-yl)amino)-2-(methyl(2-(methylamino)ethyl)amino)phenyl)acrylamide]	0.44 nM	5.23	88.2 nM	2.3 nM	2.98 nM	29.58		
C#CCn1cc(-c2ccnc(Nc3cc(NC(=O)C=C)c(N(C)CCNC)cc3OC)n2)c2ccccc21 [Example 129, N-(4-methoxy-2-(methyl(2-(methylamino)ethyl)amino)-5-((4-(1-(prop-2-yn-1-yl)-1H-indol-3-yl)pyrimidin-2-yl)amino)phenyl)acrylamide]	1.01 nM	13.58	690 nM	13.7 nM	6.22 nM	110.93		
C=CC(=O)Nc1cc(Nc2nccc(-n3ncc4cc(OCCOC)ccc43)n2)c(OC)cc1N(C)CCN1CCCC1 [Example 134, N-(4-methoxy-5-((4-(5-(2-methoxyethoxy)-1H-indazol-1-yl)pyrimidin-2-yl)amino)-2-(methyl(2-(pyrrolidin-1-yl)ethyl)amino)phenyl)acrylamide]	1.85 nM	10.75	325 nM	19.9 nM	12.3 nM	26.45		
